According to patent US8921362B2, “6,7-dialkoxy quinazoline derivatives and methods of treating drug resistant and other tumors” (Natco Pharma Limited, priority 2008, dated 2014):

Columns and labels:
Assay in all cases: KinomeScan
Assay type in all cases: binding
Settings in all cases: read-out: % Ctrl @ 10000 nM
CSNK2A1 = target: T1, CSNK2A1 (Homo sapiens, UniProt P68400)
T1 construct: purchased Ambit Biosciences Corp (KinomeScan); host or cells: T7 phage in E. coli host derived from BL21
In short: (§1)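 Steps: grow kinase-tagged T7 phage in BL21-derived E. coli (MOI ~0.1, 32° C., to lysis); clear lysate; mix with blocked ligand beads and compound; elute; titer by qPCR.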

LIMK1 = target: T2, LIMK1 (Homo sapiens, UniProt P53667)
T2 construct: host or cells: T7 phage grown in E. coli host derived from BL21
In short: as §1

LOK = target: T3, LOK (Homo sapiens, UniProt O94804)
T3 construct: host or cells: E. coli host derived from the BL21 strain, infected with T7 phage
In short: as §1

KIT(V559D, T670I) = target: T4, KIT(V559D, T670I) (Homo sapiens, UniProt P10721, T670I/V559D)
T4 construct: host or cells: T7 phage grown in E. coli host derived from BL21
In short: as §1

MKNK2 = target: T5, MKNK2 (Homo sapiens, UniProt Q9HBH9)
T5 construct: host or cells: T7 phage grown in E. coli host derived from BL21
In short: as §1

GSK3A = target: T6, GSK3A (Homo sapiens, UniProt P49840)
T6 construct: host or cells: T7 phage in E. coli host derived from BL21
In short: as §1

RET = target: T7, RET (Homo sapiens, UniProt P07949)
T7 construct: host or cells: E. coli host derived from BL21, T7 phage display
In short: as §1

VEGFR2 = target: T8, VEGFR2 (Homo sapiens, UniProt P35968)
T8 construct: host or cells: E. coli host derived from BL21, T7 phage
In short: as §1

PAK6 = target: T9, PAK6 (Homo sapiens, UniProt Q9NQU5)
T9 construct: host or cells: E. coli host derived from BL21, infected with T7 phage
In short: as §1

PKAC-alpha = target: T10, PKAC-alpha (Homo sapiens, UniProt P17612)
T10 construct: host or cells: T7 phage in E. coli host derived from BL21
In short: as §1

PAK2 = target: T11, PAK2 (Homo sapiens, UniProt Q13177)
T11 construct: host or cells: E. coli host derived from BL21, infected with T7 phage
In short: as §1

BLK = target: T12, BLK (Homo sapiens, UniProt P51451)
T12 construct: host or cells: E. coli host derived from BL21
In short: as §1

PKN1 = target: T13, PKN1 (Homo sapiens, UniProt Q16512)
T13 construct: host or cells: T7 phage in E. coli host derived from BL21
In short: as §1

MEK6 = target: T14, MEK6 (Homo sapiens, UniProt P52564)
T14 construct: host or cells: E. coli host derived from the BL21 strain, infected with T7 phage
In short: as §1

PRKCQ = target: T15, PRKCQ (Homo sapiens, UniProt Q04759)
T15 construct: host or cells: T7 phage in E. coli host derived from BL21
In short: as §1

AURKA = target: T16, AURKA (Homo sapiens, UniProt O14965)
T16 construct: host or cells: E. coli host derived from BL21
In short: as §1

ABL1(H396P) = target: T17, ABL1(H396P) (Homo sapiens, UniProt P00519, H396P)
T17 construct: host or cells: E. coli (BL21-derived), T7 phage lysate
In short: as §1

MST1 = target: T18, MST1 (Homo sapiens, UniProt Q13043)
T18 construct: host or cells: T7 phage grown in E. coli host derived from BL21
In short: as §1

EGFR(S752-1759del) = target: T19, EGFR(S752-1759del) (Homo sapiens, UniProt P00533, DEL752-759)
T19 construct: purchased Ambit Biosciences Corp; host or cells: T7 phage in E. coli host derived from BL21
In short: as §1

YSK1 = target: T20, YSK1 (Homo sapiens, UniProt O00506)
T20 construct: host or cells: T7 phage grown in an E. coli host derived from BL21
In short: as §1

p38-beta = target: T21, p38-beta (Homo sapiens, UniProt Q15759)
T21 construct: host or cells: E. coli host derived from BL21, infected with T7 phage
In short: as §1

PCTK2 = target: T22, PCTK2 (Homo sapiens, UniProt Q00537)
T22 construct: host or cells: E. coli host derived from BL21, infected with T7 phage
In short: as §1

IGF1R = target: T23, IGF1R (Homo sapiens, UniProt P08069)
T23 construct: host or cells: T7 phage grown in E. coli host derived from BL21
In short: as §1

INSRR = target: T24, INSRR (Homo sapiens, UniProt P14616)
T24 construct: host or cells: T7 phage grown in E. coli host derived from BL21
In short: as §1

EGFR(L858R) = target: T25, EGFR(L858R) (Homo sapiens, UniProt P00533, L858R)
T25 construct: purchased Ambit Biosciences Corp; host or cells: T7 phage in E. coli host derived from BL21
In short: as §1

BRK = target: T26, BRK (Homo sapiens, UniProt Q13882)
T26 construct: host or cells: E. coli host derived from BL21
In short: as §1

PLK4 = target: T27, PLK4 (Homo sapiens, UniProt O00444)
T27 construct: host or cells: T7 phage in E. coli host derived from BL21
In short: as §1

STK35 = target: T28, STK35 (Homo sapiens, UniProt Q8TDR2)
T28 construct: host or cells: T7 phage grown in E. coli (BL21-derived)
In short: as §1

RET(V804M) = target: T29, RET(V804M) (Homo sapiens, UniProt P07949, V804M)
T29 construct: host or cells: E. coli host derived from BL21, T7 phage display
In short: as §1

PIK3CA = target: T30, PIK3CA (Homo sapiens, UniProt P42336)
T30 construct: host or cells: E. coli host derived from BL21, infected with T7 phage
In short: as §1

MKNK1 = target: T31, MKNK1 (Homo sapiens, UniProt Q9BUB5)
T31 construct: host or cells: T7 phage grown in E. coli host derived from BL21
In short: as §1

TAK1 = target: T32, TAK1 (Homo sapiens, UniProt O43318)
T32 construct: host or cells: T7 phage grown in E. coli (BL21-derived)
In short: as §1

TRKB = target: T33, TRKB (Homo sapiens, UniProt Q16620)
T33 construct: host or cells: E. coli host derived from BL21, T7 phage
In short: as §1

T8 sequence (P35968 20-1356): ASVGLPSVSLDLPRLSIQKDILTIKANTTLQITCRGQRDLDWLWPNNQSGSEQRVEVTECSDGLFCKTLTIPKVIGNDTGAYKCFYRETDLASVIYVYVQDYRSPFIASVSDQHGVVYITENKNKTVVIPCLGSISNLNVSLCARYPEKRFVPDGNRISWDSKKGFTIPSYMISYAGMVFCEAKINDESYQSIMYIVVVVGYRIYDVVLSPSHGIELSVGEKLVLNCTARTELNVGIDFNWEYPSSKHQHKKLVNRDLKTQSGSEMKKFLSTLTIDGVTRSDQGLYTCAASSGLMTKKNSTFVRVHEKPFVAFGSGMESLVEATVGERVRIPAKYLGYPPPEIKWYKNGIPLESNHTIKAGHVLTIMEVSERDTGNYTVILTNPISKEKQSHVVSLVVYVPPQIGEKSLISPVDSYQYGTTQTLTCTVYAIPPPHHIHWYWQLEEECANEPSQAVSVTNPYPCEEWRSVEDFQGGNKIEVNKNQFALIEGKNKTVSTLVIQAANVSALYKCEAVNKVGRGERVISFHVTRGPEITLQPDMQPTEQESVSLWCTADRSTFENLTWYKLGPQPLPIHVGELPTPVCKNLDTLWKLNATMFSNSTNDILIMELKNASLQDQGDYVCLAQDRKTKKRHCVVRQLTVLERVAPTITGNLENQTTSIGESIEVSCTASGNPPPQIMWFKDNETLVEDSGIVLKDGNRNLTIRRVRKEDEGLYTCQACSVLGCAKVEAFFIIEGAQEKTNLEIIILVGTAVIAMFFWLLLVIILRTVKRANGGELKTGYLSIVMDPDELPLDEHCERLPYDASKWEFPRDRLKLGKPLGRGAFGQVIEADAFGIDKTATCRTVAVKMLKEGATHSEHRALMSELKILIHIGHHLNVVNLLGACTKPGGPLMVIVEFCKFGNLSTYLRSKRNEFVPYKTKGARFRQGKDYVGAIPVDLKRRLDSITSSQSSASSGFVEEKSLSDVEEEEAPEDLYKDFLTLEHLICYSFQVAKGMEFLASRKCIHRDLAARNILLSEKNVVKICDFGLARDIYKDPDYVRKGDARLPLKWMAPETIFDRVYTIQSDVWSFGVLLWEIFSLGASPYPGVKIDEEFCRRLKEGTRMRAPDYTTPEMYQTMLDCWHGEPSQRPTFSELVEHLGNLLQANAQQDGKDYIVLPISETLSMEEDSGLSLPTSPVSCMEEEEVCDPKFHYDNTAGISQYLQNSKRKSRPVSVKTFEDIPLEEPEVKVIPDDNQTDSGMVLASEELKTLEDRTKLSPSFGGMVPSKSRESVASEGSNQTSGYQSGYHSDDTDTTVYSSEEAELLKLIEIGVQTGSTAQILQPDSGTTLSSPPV
T29 sequence (P07949 29-1114 V804M): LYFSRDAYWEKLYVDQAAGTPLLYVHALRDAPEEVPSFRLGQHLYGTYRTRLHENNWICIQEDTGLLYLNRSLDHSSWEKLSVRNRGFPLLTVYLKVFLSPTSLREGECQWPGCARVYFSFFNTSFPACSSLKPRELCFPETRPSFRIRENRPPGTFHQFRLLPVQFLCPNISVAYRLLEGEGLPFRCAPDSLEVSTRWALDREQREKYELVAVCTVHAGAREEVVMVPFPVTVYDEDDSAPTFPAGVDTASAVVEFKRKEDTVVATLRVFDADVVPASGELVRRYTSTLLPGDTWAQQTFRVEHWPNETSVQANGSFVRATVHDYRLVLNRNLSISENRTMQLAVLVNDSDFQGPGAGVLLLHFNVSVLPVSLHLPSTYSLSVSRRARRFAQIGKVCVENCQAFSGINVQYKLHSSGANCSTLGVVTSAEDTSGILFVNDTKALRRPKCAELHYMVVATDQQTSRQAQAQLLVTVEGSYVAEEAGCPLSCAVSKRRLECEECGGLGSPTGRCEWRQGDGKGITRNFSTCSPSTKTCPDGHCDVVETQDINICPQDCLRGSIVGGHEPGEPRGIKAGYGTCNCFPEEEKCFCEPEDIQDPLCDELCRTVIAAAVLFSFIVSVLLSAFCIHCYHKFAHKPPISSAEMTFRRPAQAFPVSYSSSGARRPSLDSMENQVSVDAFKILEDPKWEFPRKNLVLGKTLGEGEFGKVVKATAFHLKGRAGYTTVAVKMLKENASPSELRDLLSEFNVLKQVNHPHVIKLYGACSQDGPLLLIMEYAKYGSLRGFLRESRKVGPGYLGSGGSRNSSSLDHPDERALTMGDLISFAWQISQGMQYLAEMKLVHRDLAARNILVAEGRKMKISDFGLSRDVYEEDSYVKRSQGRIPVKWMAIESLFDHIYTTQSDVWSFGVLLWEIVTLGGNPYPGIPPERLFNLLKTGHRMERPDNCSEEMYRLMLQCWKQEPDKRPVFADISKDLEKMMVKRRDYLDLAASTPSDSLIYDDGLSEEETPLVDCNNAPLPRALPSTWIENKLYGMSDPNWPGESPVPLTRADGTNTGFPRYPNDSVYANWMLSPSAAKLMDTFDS
T23 sequence (P08069 31-1367): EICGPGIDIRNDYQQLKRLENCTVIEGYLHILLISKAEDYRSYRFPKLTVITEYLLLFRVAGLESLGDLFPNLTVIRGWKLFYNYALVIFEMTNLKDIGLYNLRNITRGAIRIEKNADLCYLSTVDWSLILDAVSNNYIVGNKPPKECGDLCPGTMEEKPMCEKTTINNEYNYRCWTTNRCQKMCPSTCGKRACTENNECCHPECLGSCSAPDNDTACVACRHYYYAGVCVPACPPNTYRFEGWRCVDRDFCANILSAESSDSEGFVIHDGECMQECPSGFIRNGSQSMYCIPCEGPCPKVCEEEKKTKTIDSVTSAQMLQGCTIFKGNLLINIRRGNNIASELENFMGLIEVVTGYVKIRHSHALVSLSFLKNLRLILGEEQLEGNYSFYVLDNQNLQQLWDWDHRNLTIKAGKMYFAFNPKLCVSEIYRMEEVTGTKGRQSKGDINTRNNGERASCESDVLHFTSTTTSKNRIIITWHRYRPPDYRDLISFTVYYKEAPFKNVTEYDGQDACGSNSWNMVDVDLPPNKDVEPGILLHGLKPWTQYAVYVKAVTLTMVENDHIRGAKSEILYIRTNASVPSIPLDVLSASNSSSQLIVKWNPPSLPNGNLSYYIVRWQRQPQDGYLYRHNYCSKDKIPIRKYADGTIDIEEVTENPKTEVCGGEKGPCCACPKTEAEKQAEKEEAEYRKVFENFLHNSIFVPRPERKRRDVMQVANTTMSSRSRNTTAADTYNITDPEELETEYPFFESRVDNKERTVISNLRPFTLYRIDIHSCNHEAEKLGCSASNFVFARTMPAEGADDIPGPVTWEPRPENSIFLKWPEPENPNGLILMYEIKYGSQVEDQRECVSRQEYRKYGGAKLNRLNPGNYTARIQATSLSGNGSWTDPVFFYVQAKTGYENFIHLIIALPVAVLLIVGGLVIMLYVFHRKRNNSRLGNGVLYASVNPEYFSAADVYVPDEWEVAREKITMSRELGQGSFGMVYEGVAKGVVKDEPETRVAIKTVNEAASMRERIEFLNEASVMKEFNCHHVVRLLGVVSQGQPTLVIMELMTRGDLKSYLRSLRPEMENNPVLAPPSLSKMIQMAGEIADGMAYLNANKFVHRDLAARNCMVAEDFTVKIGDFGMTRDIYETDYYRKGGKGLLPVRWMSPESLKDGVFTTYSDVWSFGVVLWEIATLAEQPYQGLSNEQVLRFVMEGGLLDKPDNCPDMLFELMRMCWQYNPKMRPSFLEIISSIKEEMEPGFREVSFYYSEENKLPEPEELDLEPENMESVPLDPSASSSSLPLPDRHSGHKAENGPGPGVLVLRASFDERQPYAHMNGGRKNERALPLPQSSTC
T26 sequence (Q13882 whole entry): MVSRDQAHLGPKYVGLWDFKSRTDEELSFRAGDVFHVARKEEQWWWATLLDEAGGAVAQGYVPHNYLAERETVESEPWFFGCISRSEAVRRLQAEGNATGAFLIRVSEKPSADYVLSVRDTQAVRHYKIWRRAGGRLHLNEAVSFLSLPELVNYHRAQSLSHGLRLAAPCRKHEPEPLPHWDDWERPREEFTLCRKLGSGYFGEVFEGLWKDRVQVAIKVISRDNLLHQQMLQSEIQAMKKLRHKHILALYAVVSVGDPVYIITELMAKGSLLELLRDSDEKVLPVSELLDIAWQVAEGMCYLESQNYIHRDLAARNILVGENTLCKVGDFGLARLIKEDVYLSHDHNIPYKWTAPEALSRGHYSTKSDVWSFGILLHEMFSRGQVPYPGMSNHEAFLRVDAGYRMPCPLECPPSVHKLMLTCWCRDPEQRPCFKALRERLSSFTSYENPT
T9 sequence (Q9NQU5 whole entry): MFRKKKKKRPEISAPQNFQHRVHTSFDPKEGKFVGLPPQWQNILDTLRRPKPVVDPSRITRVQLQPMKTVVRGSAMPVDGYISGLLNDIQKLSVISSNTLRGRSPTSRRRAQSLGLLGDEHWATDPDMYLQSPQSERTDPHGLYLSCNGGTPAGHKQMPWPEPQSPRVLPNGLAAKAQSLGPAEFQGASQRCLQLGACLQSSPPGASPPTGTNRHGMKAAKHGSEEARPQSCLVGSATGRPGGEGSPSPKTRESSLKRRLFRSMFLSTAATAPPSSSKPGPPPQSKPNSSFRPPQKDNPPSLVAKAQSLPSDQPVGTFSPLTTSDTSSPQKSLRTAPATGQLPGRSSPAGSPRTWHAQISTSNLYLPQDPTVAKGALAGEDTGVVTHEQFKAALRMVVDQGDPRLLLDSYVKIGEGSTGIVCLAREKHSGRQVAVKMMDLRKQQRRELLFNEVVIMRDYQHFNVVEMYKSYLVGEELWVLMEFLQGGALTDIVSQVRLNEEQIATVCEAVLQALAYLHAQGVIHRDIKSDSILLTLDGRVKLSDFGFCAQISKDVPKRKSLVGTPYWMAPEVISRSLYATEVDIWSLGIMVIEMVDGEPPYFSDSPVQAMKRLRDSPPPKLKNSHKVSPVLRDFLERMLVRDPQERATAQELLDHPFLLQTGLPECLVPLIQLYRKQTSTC
T7 sequence (P07949 29-1114): as the sequence (P07949 29-1114 V804M) above, with M776V counted along it

## C#Cc1cccc(Nc2ncnc3cc(OC)c(OCCCN4CCOCC4)cc23)c1 [NRC-2694, N-(3-ethynylphenyl)-7-methoxy-6-[3-(4-morpholinyl)propoxy]-4-quinazolinamine]
CSNK2A1
  remaining binding at 10 µM: 56%
LIMK1
  remaining binding at 10 µM: 62%
LOK
  remaining binding at 10 µM: 0%
KIT(V559D, T670I)
  remaining binding at 10 µM: 28%
MKNK2
  remaining binding at 10 µM: 16%
GSK3A
  remaining binding at 10 µM: 75%
RET
  remaining binding at 10 µM: 65%
VEGFR2
  remaining binding at 10 µM: 95%
PAK6
  remaining binding at 10 µM: 70%
PKAC-alpha
  remaining binding at 10 µM: 100%
PAK2
  remaining binding at 10 µM: 67%
BLK
  remaining binding at 10 µM: 4.4%
PKN1
  remaining binding at 10 µM: 50%
MEK6
  remaining binding at 10 µM: 75%
PRKCQ
  remaining binding at 10 µM: 83%
AURKA
  remaining binding at 10 µM: 100%
ABL1(H396P)
  remaining binding at 10 µM: 34%
MST1
  remaining binding at 10 µM: 100%
EGFR(S752-1759del)
  remaining binding at 10 µM: 0%
YSK1
  remaining binding at 10 µM: 69%
p38-beta
  remaining binding at 10 µM: 100%
PCTK2
  remaining binding at 10 µM: 72%
IGF1R
  remaining binding at 10 µM: 74%
INSRR
  remaining binding at 10 µM: 79%
EGFR(L858R)
  remaining binding at 10 µM: 0%
BRK
  remaining binding at 10 µM: 46%
PLK4
  remaining binding at 10 µM: 70%
STK35
  remaining binding at 10 µM: 52%
RET(V804M)
  remaining binding at 10 µM: 100%
PIK3CA
  remaining binding at 10 µM: 100%
MKNK1
  remaining binding at 10 µM: 1.2%
TAK1
  remaining binding at 10 µM: 66%
TRKB
  remaining binding at 10 µM: 73%
